Data published in patent publication US6455506B1, “Lyxofuranosyl benzimidazoles as antiviral agents” (SmithKline Beecham Corporation, priority 1997, dated 2002).
“And” between values parts separate entries of the source, which are not always exact repeats. Equal entries are not always repeated. Where two headings read alike, the source gives them in different places.

Tests used:
[1] = test system: HCMV; assay: HCMV plaque reduction assay (Towne strain) in HFF cells; format: cell-based, Human cytomegalovirus
Experimental: (§1) Stock HCMV was prepared by infecting HFF cells at a multiplicity of infection (m.o.i.) of <0.01 plaque-forming units (p.f.u.) per cell as detailed previously (see Turk, S. R.; Shipman, C., Jr.; Nassiri, M. R.; Genzingler, G.; Krawczyk, S. H.; Townsend, L. B.; Drach, J. C. Pyrrolo[2,3-d]pyrimidine Nucleosides as Inhibitors of Human Cytomegalovirus, Antimicrob. Agents Chemother. 1987, 31, 544-550). High titer HSV-1 stocks were prepared by infecting KB cells (ATCC) at an m.o.i. of <0.1 also as detailed previously (see Turk, S. R.; Shipman, C., Jr.; Nassiri, M. R.; Genzingler, G.; Krawczyk, S. H.; Townsend, L. B.; Drach, J. C. Pyrrolo[2,3-d]pyrimidine Nucleosides as Inhibitors of Human Cytomegalovirus, Antimicrob. Agents Chemother. 1987, 31, 544-550). Virus titers were determined using monolayer cultures of HFF cells for HCMV and monolayer cultures of BSC-1 cells for HSV-1 as described earlier (see Prichard, M. N.; Turk, S. R.; Coleman, L. A.; Engelhardt, S. L.; Shipman, C., Jr.; Drach, J. C. A Microtiter Virus Yield Reduction Assay for the Evaluation of Antiviral Compounds Against Human Cytomegalovirus and Herpes Simplex Virus. J. Virol. Methods 1990, 28, 101-106). Briefly, HFF or BSC-1 cells were planted as described above in 96-well cluster dishes and incubated overnight at 37° C. The next day cultures were inoculated with HCMV or HSV-1 and serially diluted 1:3 across the remaining eleven columns of the 96-well plate. After virus adsorption the inoculum was replaced with fresh medium and cultures were incubated for seven days for HCMV, two or three days for HSV-1. Plaques were enumerated under 20-fold magnification in wells having the dilution which gave 5 to 20 plaques per well. Virus titers were calculated according to the following formula: Titer (p.f.u./mL)=number of plaques×5×3^n; where n represents the nth dilution of the virus used to infect the well in which plaques were enumerated.
(§2) HFF cells in 24-well cluster dishes were infected with approximately 100 p.f.u. of HCMV per cm^2 cell sheet using the procedures detailed above. Following virus adsorption, compounds dissolved in growth medium were added to duplicate wells in four to eight selected concentrations. After incubation at 37° C. for 7 to 10 days, cell sheets were fixed, stained with crystal violet and microscopic plaques enumerated as described above.
(§3) Dose-response relationships were constructed by linearly regressing the percent inhibition of parameters derived in the preceding sections against log drug concentrations. Fifty-percent inhibitory concentrations (IC50's) or IC90's were calculated from the regression lines. Samples containing positive controls (acyclovir for HSV-1, ganciclovir for HCMV, and 2-acetylpyridine thiosemicarbazone for cytotoxicity) were used in all assays.

[2] = test system: HSV-1; assay: HSV-1 ELISA in BSC-1 cells; format: cell-based, herpes simplex virus 1; conditions: Human alphaherpesvirus 1, quadruplicate wells, read-out: HSV-1 ELISA 50% Inhibitory Concentration (IC50)
Experimental: An ELISA was employed (see Prichard, M. N.; Shipman, C., Jr. A Three Dimensional Model to Analyze Drug-Drug Interactions. Antiviral Res. 1990, 14, 181-206) to detect HSV-1. Ninety-six-well cluster dishes were planted with 10,000 BSC-1 cells per well in 200 μL per well of MEM(E) plus 10% calf serum. After overnight incubation at 37° C., selected drug concentrations in quadruplicate and HSV-1 at a concentration of 100 p.f.u./well were added. Following a 3-day incubation at 37° C., medium was removed, plates were blocked, rinsed, and horse radish peroxidase conjugated rabbit anti-HSV-1 antibody was added. Following removal of the antibody containing solution, plates were rinsed, and then developed by adding 150 μL per well of a solution of tetramethylbenzidine as substrate. The reaction was stopped with H2SO4 and absorbance was read at 450 and 570 nm. Drug effects were calculated as a percentage of the reduction in absorbance in the presence of each drug concentration compared to absorbance obtained with virus in the absence of drug.
as §3

[3] = Visual cytotoxicity in stationary HFF cells; format: cell-based; conditions: human
Experimental: (§4) Two different assays were used for routine cytotoxicity testing. (i) Cytotoxicity produced in stationary HFF cells was determined by microscopic inspection of cells not affected by the virus used in plaque assays (see Turk, S. R.; Shipman, C., Jr.; Nassiri, M. R.; Genzingler, G.; Krawczyk, S. H.; Townsend, L. B.; Drach, J. C. Pyrrolo[2,3-]pyrimidine Nucleosides as Inhibitors of Human Cytomegalovirus, Antimicrob. Agents Chemother. 1987, 31, 544-550). (ii) The effect of compounds during two population doublings of KB cells was determined by crystal violet staining and spectrophotometric quantitation of dye eluted from stained cells as described earlier (see Prichard, M. N.; Prichard, L. E., Baguley, W. A.; Nassiri, M. R.; Shipman, C., Jr. Three-Dimensional Analysis of the Synergistic Cytotoxicity of Ganciclovir and Zidovudine. Antiviral Res. 1991, 35, 1060-1065). Briefly, 96-well cluster dishes were planted with KB cells at 3000-5000 cells per well. After overnight incubation at 37° C., test compound was added in quadruplicate at six to eight concentrations. Plates were incubated at 37° C. for 48 hours in a CO2 incubator, rinsed, fixed with 95% ethanol, and stained with 0.1% crystal violet. Acidified ethanol was added and plates read at 570 nm in a spectrophotometer designed to read 96-well ELISA assay plates.
as §3

[4] = Inhibition of KB cell growth (crystal violet); format: cell-based; conditions: human
Experimental: as §4, §3

[5] = test system: HCMV; assay: HCMV yield reduction assay (Towne strain) in HFF cells; format: cell-based, Human cytomegalovirus
Experimental: as §1
HFF cells were planted as described above in 96-well cluster dishes, incubated overnight, medium removed and the cultures were inoculated with HCMV at a m.o.i. of 0.5 to 1 p.f.u. per cell as reported elsewhere (see Prichard, M. N.; Turk, S. R.; Coleman, L. A.; Engelhardt, S. L.; Shipman, C., Jr.; Drach, J. C. A Microtiter Virus Yield Reduction Assay for the Evaluation of Antiviral Compounds Against Human Cytomegalovirus and Herpes Simplex Virus. J. Virol. Methods 1990, 28, 101-106). After virus adsorption, inoculum was replaced with 0.2 mL of fresh medium containing test compounds. The first row of 12 wells was left undisturbed and served as virus controls. Each well in the second row received an additional 0.1 mL of medium with test compound at three times the desired final concentration. The contents of the 12 wells were mixed by repeated pipetting and then serially diluted 1:3 along the remaining wells. In this manner, six compounds could be tested in duplicate on a single plate with concentrations from […]. Plates were incubated at 37° C. for seven days, subjected to one cycle of freezing and thawing; aliquots from each of the eight wells of a given column were transferred to the first column of a fresh 96-well monolayer culture of HFF cells. Contents were mixed and serially diluted 1:3 across the remaining eleven columns of the secondary plate. Each column of the original primary plate was diluted across a separate plate in this manner. Cultures were incubated, plaques were enumerated, and titers calculated as described above.
as §3

[6] = test system: HCMV Strain AD169; assay: HCMV plaque reduction assay, strain AD169; format: cell-based, Human cytomegalovirus; conditions: Human betaherpesvirus 5, Table 3, read-out: HCMV Strain AD169 plaque 50% Inhibitory Concentration (IC50)
Experimental: as §2, §3

[7] = Human betaherpesvirus 5, Table 2, HFF cells, duplicate, read-out: HCMV plaque 50% Inhibitory Concentration (IC50)
[8] = HFF cells, scored at time of HCMV plaque enumeration, read-out: Cytotoxicity visual (IC50)
[9] = KB cells, KB cell growth, 48 hours, quadruplicate, read-out: Cytotoxicity growth (IC50)
[10] = Human betaherpesvirus 5, Table 2, HFF cells, duplicate, read-out: HCMV yield 90% Inhibitory Concentration (IC90)
[11] = Human betaherpesvirus 5, HFF, Table 3, same data as Table 2, read-out: HCMV Strain Towne plaque 50% Inhibitory Concentration (IC50)
[12] = Human betaherpesvirus 5, HFF, Table 3, same data as Table 2, read-out: HCMV Strain Towne yield 90% Inhibitory Concentration (IC90)

SMILES: CNc1nc2cc(Cl)c(Cl)cc2n1[C@@H]1O[C@@H](CO)[C@@H](O)[C@H]1O [Compound 6a, 5,6-Dichloro-1-(α-L-lyxofuranosyl)-2-(methylamino)benzimidazole]
- IC50 [1, 7]: > 100 µM
- IC50 [2]: > 100 µM
- IC50 [3, 8]: > 100 µM
- IC50 at 48 h [4, 9]: > 100 µM
- melting point: 126 to 128 °C and 131 to 132 °C

SMILES: CNc1nc2cc(Cl)c(Cl)cc2n1[C@H]1O[C@H](CO)[C@H](O)[C@@H]1O [Compound 6b, 5,6-Dichloro-1-(α-D-lyxofuranosyl)-2-(methylamino)benzimidazole]
- IC50 [1, 7]: > 100 µM
- IC90 [5, 10]: > 100 µM
- IC50 [2]: > 100 µM
- IC50 [3, 8]: > 100 µM
- IC50 at 48 h [4, 9]: > 100 µM

SMILES: CC(C)Nc1nc2cc(Cl)c(Cl)cc2n1[C@@H]1O[C@@H](CO)[C@@H](O)[C@H]1O [Compound 7a, 5,6-Dichloro-2-isopropylamino-1-(α-L-lyxofuranosyl)benzimidazole]
- IC50 [1, 11]: > 100 µM
- IC50 [1, 7]: > 100 µM
- IC90 [5, 12]: 19 µM
- IC90 [5, 10]: 19 µM
- IC50 [2]: > 100 µM
- IC50 [3, 8]: > 100 µM
- IC50 at 48 h [4, 9]: > 100 µM
- IC50 [6]: 11 µM

SMILES: CC(C)Nc1nc2cc(Cl)c(Cl)cc2n1[C@H]1O[C@H](CO)[C@H](O)[C@@H]1O [Compound 7b, 5,6-Dichloro-2-isopropylamino-1-(α-D-lyxofuranosyl)benzimidazole]
- IC50 [1, 11]: 60 µM
- IC50 [1, 7]: 60 µM
- IC90 [5, 12]: 17 µM
- IC90 [5, 10]: 17 µM
- IC50 [2]: > 100 µM
- IC50 [3, 8]: > 100 µM
- IC50 at 48 h [4, 9]: > 100 µM
- IC50 [6]: 32 µM

SMILES: CSc1nc2cc(Cl)c(Cl)cc2n1[C@@H]1O[C@@H](CO)[C@@H](O)[C@H]1O [Compound 12a, 5,6-Dichloro-1-(α-L-lyxofuranosyl)-2-(methylthio)benzimidazole]
- IC50 [1, 7]: > 100 µM
- IC50 [2]: > 100 µM
- IC50 [3, 8]: > 100 µM
- IC50 at 48 h [4, 9]: > 100 µM

SMILES: O=C(O)P(=O)(O)O [foscarnet, reference compound]
- IC50 [1, 7]: 39 ± 26 µM
- IC50 [3, 8]: > 100 µM

SMILES: OC[C@@H]1O[C@@H](n2c(Cl)nc3cc(Cl)c(Cl)cc32)[C@H](O)[C@@H]1O [Compound 4a, 1-(α-L-Lyxofuranosyl)-2,5,6-trichlorobenzimidazole]
- IC50 [1, 11]: 18 µM
- IC50 [1, 7]: 18 µM
- IC90 [5, 12]: 3.4 µM
- IC90 [5, 10]: 3.4 µM
- IC50 [2]: > 100 µM
- IC50 [3]: 190 µM
- IC50 at 48 h [4]: > 100 µM
- IC50 [6]: 2.6 µM

SMILES: OC[C@H]1O[C@H](n2c(Br)nc3cc(Cl)c(Cl)cc32)[C@@H](O)[C@H]1O [Compound 5b, 2-Bromo-5,6-dichloro-1-(α-D-lyxofuranosyl)benzimidazole]
- IC50 [1, 11]: 6 µM
- IC50 [1, 7]: 6 µM
- IC90 [5, 12]: 65 µM
- IC90 [5, 10]: 65 µM
- IC50 [2]: 50 µM
- IC50 [3, 8]: > 100 µM
- IC50 at 48 h [4, 9]: > 100 µM
- IC50 [6]: 4.2 µM

SMILES: OC[C@H]1O[C@H](n2c(=S)[nH]c3cc(Cl)c(Cl)cc32)[C@@H](O)[C@H]1O [Compound 9b, 5,6-Dichloro-1-(α-D-lyxofuranosyl)benzimidazol-2-thione]
- IC50 [1, 7]: > 100 µM
- IC90 [5, 10]: > 100 µM
- IC50 [2]: > 100 µM
- IC50 [3, 8]: > 100 µM
- IC50 at 48 h [4, 9]: > 100 µM

SMILES: OC[C@@H]1O[C@@H](n2c(=S)[nH]c3cc(Cl)c(Cl)cc32)[C@H](O)[C@@H]1O [Compound 9a, 5,6-Dichloro-1-(α-L-lyxofuranosyl)benzimidazol-2-thione]
- IC50 [1, 7]: > 100 µM
- IC90 [5, 10]: > 100 µM
- IC50 [2]: > 100 µM
- IC50 [3, 8]: > 100 µM
- IC50 at 48 h [4, 9]: > 100 µM
- melting point: 234 to 236 °C

SMILES: OC[C@H]1O[C@H](n2c(Cl)nc3cc(Cl)c(Cl)cc32)[C@@H](O)[C@H]1O [Compound 4b, 1-(α-D-Lyxofuranosyl)-2,5,6-trichlorobenzimidazole]
- IC50 [1, 11]: 18 µM
- IC50 [1, 7]: 18 µM
- IC90 [5, 12]: > 100 µM
- IC90 [5, 10]: > 100 µM
- IC50 [2]: 90 µM
- IC50 [3]: > 100 µM
- IC50 at 48 h [4]: > 100 µM
- IC50 [6]: 9 µM

SMILES: OC[C@@H]1O[C@@H](n2c(NC3CC3)nc3cc(Cl)c(Cl)cc32)[C@H](O)[C@@H]1O [Compound 8a, 2-Cyclopropylamino-5,6-dichloro-1-(α-L-lyxofuranosyl)benzimidazole]
- melting point: 183 to 185 °C and 184 to 186 °C

SMILES: CSc1nc2cc(Cl)c(Cl)cc2n1[C@H]1O[C@H](CO)[C@H](O)[C@@H]1O [Compound 12b, 5,6-Dichloro-1(α-D-lyxofuranosyl)-2-(methylthio)benzimidazole]
- IC50 [1, 7]: > 100 µM
- IC90 [5, 10]: > 100 µM
- IC50 [2]: > 100 µM
- IC50 [3, 8]: > 100 µM
- IC50 at 48 h [4, 9]: > 100 µM
